Literature values in US11452308B2, “Method of selecting a probiotic” (SOCIETE DES PRODUITS NESTLE S.A., priority 2017, dated 2022).

Tests used:
[1] = in vivo
[2] = compared with hydroxytyrosol

| Molecule | clearance from the plasma [1] | solubility in the lipophilic phases [2] |
| --- | --- | --- |
| CC=C1C(O)OC=C(C(=O)OC)C1CC(=O)OCCc1ccc(O)c(O)c1 (centres unmarked) [oleuropein aglycone, 3,4-dihydroxyphenylethanol-elenolic acid] | slower clearance from the plasma | – |
| hydroxytyrosol acetate | – | more soluble in the lipophilic phases than hydroxytyrosol |
